Source: article PMC8110578, “Phenylethynylbenzyl-modified biguanides inhibit pancreatic cancer tumor growth” (Scientific Reports, 2021)

Experiments:
Panc1 cells = experiment: Growth assay (crystal violet), Panc1 cells; format: cell-based; settings: Homo sapiens, PANC-1, 72 h
red blood cells = experiment: Hemolytic activity of PEB-biguanidium salts; format: cell-based; settings: red blood cells 2% v/v in PBS, 1 h at 37 °C
Description: The toxicity of PEB-Biguanidiums salts was estimated through their hemolytic activity by incubating red blood cells (RBC) with the compounds for 1 h (See Supplementary Table S13 and Supplementary Fig. S29).
Experimental. Red blood cells in Alsever’s solution were centrifuged for 10 min at 300g, washed 3 times with PBS buffer, and resuspended in PBS at 2% v/v. To each well of a 96-well plate, 195 µL of red blood cell solution and 5 µL of biguanidium salt in DMSO were added, and the plate was incubated with light agitation for 1 h at 37 °C. The plate was then centrifuged for 10 min at 300g, and 50 µL of the supernatant solution of each well was transferred to another plate. Absorbance was measured at λ = 405 nm. Each measurement was performed in triplicate in three different experiments.

[1] = system: NB508 mouse pancreatic ductal adenocarcinoma cells; experiment: In vitro growth inhibition screen at 5 µM, NB508 cells; format: cell-based; settings: 72 h at 37 °C
From the text: Figure 1 (A) Structure and crystal packing of previously studied PEB-disubstituted (A.1) and monosubstituted (A.2 and A.3) benzimidazolium salts. Compound A.1 is an efficient chloride transporter forming channels and generating holes in bacterial membranes and red blood cellular membranes. Compound A.2 penetrates phospholipid membranes but is less efficient as ion transporter as it forms more compact aggregates; its toxicity on RBC is lower than compound A.1. The replacement of the phenyl group with a methyl group in compound A.3 results in the formation of even more compact aggregates with even lower toxicity on RBC. (B) Structure of PEB-substituted biguanidium salts. For each biguanide we prepared three series of biguanidium salts with different counterions. (C) Synthesis of 4-(phenylethynyl)benzylbiguanide 1 and 4-(phenylethyl)benzylbiguanide 2; (a) Phenylacetylene, PdCl2PPh3, CuI, PPh3, Et3N, THF, 70 °C, o.n. (b) NaCN(BH3)3, EtOHNH4OAc sat./NH3, 80 °C, o.n (c) Dicyandiamide, TMSCl, THFanh., 145 °C, 1 h (d) Pd/C 10%, H2, EtOH/AcOEt, 60 °C, 2 h. (D) Synthesis of 4-(phenylethynylphenyl)biguanidium 3 and 4-(phenylethylphenyl)biguanidium 4 (a) (1) Boc2O, THF, 2 h, (2) Phenylacetylene, PdCl2PPh3, CuI, PPH3, Et3N, THF, 70°, o.n. (b) TFA, DCM, 60 °C, 2 h (c) Dicyandiamide, TMSCl, THFanh, 145 °C, 1 h (d) Pd/C 10%, H2, EtOH/AcOEt, 60 °C, 2 h. The NMR spectra of the synthesized compounds are given in Supplementary Figs. S1–S24. (E) Relative growth of NB508 mouse pancreatic ductal adenocarcinoma cells and IMR90 fibroblasts exposed to 5 µM of PEB-biguanidium salts. Cells were incubated for 72 h at 37 °C. Errors bars represent the standard error of the mean (SEM), *p < 0.05, **p < 0.01, Student’s t test. (F) Crystal structure of 1b showing its self-assembly in the solid state. Crystal data is available in Supplementary Tables S1–S8 and crystal packing in Supplementary Fig. S25. TEXT PRINTED IN THE PICTURE: (A) A.1: HC50: 0.15 mM | (A) A.2: HC50: 1 mM | (A) A.3: HC50: 150 mM
NB508 is an aggressive pro-metastatic pancreatic cancer cell line that we used previously to study the role of mitochondria in pancreatic cancer. […].

[2] = system: KP4 cells sub-cutaneous xenografts; experiment: KP4 sub-cutaneous xenografts in nude mice; settings: 50 mg/kg/day IP, 5 day/week
From the text: This dose was chosen from previous work on biguanides to treat mice with pancreatic cancer.
Figure 5 Progression of the volume of KP4 cells sub-cutaneous xenografts performed in nude mice over 37 days. […] (B) Body weight of mice seven days after treatment. […] Representative images shown. Scale bar = 100 µm. […] Results are shown in graphics comparing the percentage of cells stained in each category and the intensity of staining. (E,G) Images of the most representative phenotypes for KI67 staining (E) and cleaved caspase 3 (G).
Experimental. All experiments were performed in accordance to the rules of the in vivo ethical committe of University of Montreal (CDEA #17-103). 6-7 weeks old female nude mice (Hsd:Athymic Nude- Foxn1nu, Envigo) were implanted sub-cutaneously with 750.000 KP4 cells in 100μl of a sterile mix of 20% Matrigel (Corning) in saline solution. Tumor volume was determined by using a caliper, following the formula 4/3*Π*(L*W*T) were L represent the length of the tumor, W, the width, and T, the thickness (all measured in millimeter). […] The compounds were dissolved in the vehicle: 45% Propyleneglycol (Sigma-Aldrich) +5% Tween 80 (Sigma-Aldrich) + ddH2O.

KP4 cells = experiment: Mitochondrial morphology by anti-TOMM20 immunofluorescence, KP4 cells; format: cell-based, human; settings: 24 h, 1b 15µM, metformin 5mM
Description: The action of biguanides in mitochondria can lead to morphological alterations that include disorganisation of the cristae. […].  Figure 4 Effects of biguanides on mitochondrial morphology. (A) Mitochondrial morphology in KP4 cells 24 h following the indicated treatments as visualised by anti-TOMM20 immunofluorescence. Scale bar = […]. […] The data represents the mean of 2 biological replicates and for each replicate three counts of 50 cells were done. n = 300 cells per treatment. Data was analyzed with one way ANOVA followed by Tukey HSD test.
Experimental. KP-4 cells were seeded at 50% confluency on slides in 6-well plates. […] After 24h of treatment, cells were washed twice with PBS1X then were fixed during 10 minutes at 4°C with 4% paraformaldehyde. Cells were washed again three times with PBS1X then permeabilized during 5 min in PBS1X, 2%BSA, 0,2%Triton X-100. Slides were washed three times 10 minutes with 1XPBS, 2%BSA, then incubated overnight with primary antibody anti-TOMM20 (Rabbit, 1:150, Santa Cruz, sc-11415) diluted in 1XPBS, 2%BSA. Slides were washed three times 10 minutes with 1XPBS, 2%BSA then incubated 1 hour at RT with anti-Rabbit-AlexaFluor568 secondary antibody (Goat, 1:1000, ThermoFisher Scientific). Cells were washed four times 10 minutes with 1XPBS then mounted with Vectashield mouting media containing DAPI (Vector laboratories H-1200). […]

Compound	IC50 (Panc1 cells) [mM]	HC 10% (µM) (red blood cells)	HC 10% (µg/ml) (red blood cells) [µg/mL]	Growth inhibition of NB508 cells [1]	Effect on body weight [2]	Tolerability in vivo [2]	Effect on tumor volume ([2]; from day 11 post engraftment, 37 days)	Effect on mitochondrial morphology (KP4 cells)
N=C(N)NC(=N)NCc1ccc(C#Cc2ccccc2)cc1 [1b, 4-(phenylethynyl)benzylbiguanide]	0.015	> 227	> 100	most important antiproliferative activities	did not affect body weight	well tolerated	significantly reduced tumor volume	punctuated pattern typical of fragmented mitochondria
CN(C)C(=N)NC(=N)N [metformin, 1,1-dimethylbiguanide, reference compound]	~5			no effect was observed				loss of the filamentous mitochondrial network
